The subject of this data set is CCRIS mutagenicity, Ames/micronucleus/aberration tests. The experiment in a line: CCRIS mutagenicity studies.

The record followed here is PubChem BioAssay AID1259407 (Chemical Carcinogenesis Research Information System (CCRIS), 2018).

Structures are written as SMILES. Calls of active or inactive are those of the source. How the calls were made is not given here.

For the molecule `Nc1n[nH]c(N)n1`, the mutagenic call (Test System: AMES SALMONELLA TYPHIMURIUM, Strain/Indicator: TA97, Metabolic Activation: NONE, Method: STANDARD PLATE) is “inactive; negative”; the mutagenic call (Test System: AMES SALMONELLA TYPHIMURIUM, Strain/Indicator: TA97, Metabolic Activation: RAT, LIVER, S-9, AROCLOR, Method: STANDARD PLATE) was “inactive; negative”; the mutagenic call (Test System: AMES SALMONELLA TYPHIMURIUM, Strain/Indicator: TA98, Metabolic Activation: HAMSTER, LIVER, S-9, AROCLOR 1254 (10%), Method: PREINCUBATION) was “inactive; negative”; the mutagenic call (Test System: AMES SALMONELLA TYPHIMURIUM, Strain/Indicator: TA98, Metabolic Activation: NONE, Method: PREINCUBATION) is “inactive; negative”; the mutagenic call (Test System: AMES SALMONELLA TYPHIMURIUM, Strain/Indicator: TA98, Metabolic Activation: NONE, Method: STANDARD PLATE) is “inactive; negative”; the mutagenic call (Test System: AMES SALMONELLA TYPHIMURIUM, Strain/Indicator: TA98, Metabolic Activation: RAT, LIVER, S-9, AROCLOR 1254 (10%), Method: PREINCUBATION) was “inactive; negative”. Besides, the mutagenic call reads like this: (Test System: AMES SALMONELLA TYPHIMURIUM, Strain/Indicator: TA98, Metabolic Activation: RAT, LIVER, S-9, AROCLOR, Method: STANDARD PLATE) “inactive; negative”; (Test System: AMES SALMONELLA TYPHIMURIUM, Strain/Indicator: TA100, Metabolic Activation: HAMSTER, LIVER, S-9, AROCLOR 1254 (10%), Method: PREINCUBATION) “inactive; negative”; (Test System: AMES SALMONELLA TYPHIMURIUM, Strain/Indicator: TA100, Metabolic Activation: NONE, Method: PREINCUBATION) “inactive; negative”; (Test System: AMES SALMONELLA TYPHIMURIUM, Strain/Indicator: TA100, Metabolic Activation: NONE, Method: STANDARD PLATE) “inactive; negative”; (Test System: AMES SALMONELLA TYPHIMURIUM, Strain/Indicator: TA100, Metabolic Activation: RAT, LIVER, S-9, AROCLOR 1254 (10%), Method: PREINCUBATION) “inactive; negative”; (Test System: AMES SALMONELLA TYPHIMURIUM, Strain/Indicator: TA100, Metabolic Activation: RAT, LIVER, S-9, AROCLOR, Method: STANDARD PLATE) “inactive; negative”. Also, the mutagenic call was “active; positive” (Test System: AMES SALMONELLA TYPHIMURIUM, Strain/Indicator: TA102, Metabolic Activation: NONE, Method: STANDARD PLATE); “active; positive” (Test System: AMES SALMONELLA TYPHIMURIUM, Strain/Indicator: TA102, Metabolic Activation: RAT, LIVER, S-9, AROCLOR 1254, Method: STANDARD PLATE); “inactive; negative” (Test System: AMES SALMONELLA TYPHIMURIUM, Strain/Indicator: TA1535, Metabolic Activation: HAMSTER, LIVER, S-9, AROCLOR 1254 (10%), Method: PREINCUBATION); “inactive; negative” (Test System: AMES SALMONELLA TYPHIMURIUM, Strain/Indicator: TA1535, Metabolic Activation: NONE, Method: PREINCUBATION); “inactive; negative” (Test System: AMES SALMONELLA TYPHIMURIUM, Strain/Indicator: TA1535, Metabolic Activation: NONE, Method: STANDARD PLATE); “inactive; negative” (Test System: AMES SALMONELLA TYPHIMURIUM, Strain/Indicator: TA1535, Metabolic Activation: RAT, LIVER, S-9, AROCLOR 1254 (10%), Method: PREINCUBATION). Further, the mutagenic call is “inactive; negative” (Test System: AMES SALMONELLA TYPHIMURIUM, Strain/Indicator: TA1535, Metabolic Activation: RAT, LIVER, S-9, AROCLOR, Method: STANDARD PLATE); “inactive; negative” (Test System: AMES SALMONELLA TYPHIMURIUM, Strain/Indicator: TA1537, Metabolic Activation: HAMSTER, LIVER, S-9, AROCLOR 1254 (10%), Method: PREINCUBATION); “inactive; negative” (Test System: AMES SALMONELLA TYPHIMURIUM, Strain/Indicator: TA1537, Metabolic Activation: NONE, Method: PREINCUBATION); “inactive; negative” (Test System: AMES SALMONELLA TYPHIMURIUM, Strain/Indicator: TA1537, Metabolic Activation: RAT, LIVER, S-9, AROCLOR 1254 (10%), Method: PREINCUBATION); “inactive; negative” (Test System: UDS RODENT HEPATOCYTES, Strain/Indicator: THY INCORP (NON-S-PHASE), Metabolic Activation: NONE, Method: AUTORADIOGRAPHY).
